Data from US20220202905A1, “COMPOSITION FOR PREVENTING OR TREATING NEUROTROPHIC KERATITIS WHICH CONTAINS PACAP PEPTIDE OR STABILIZED PACAP PEPTIDE” (SENJU PHARMACEUTICAL CO., LTD., priority 2019, published 2022).
Square brackets hold non-standard residues; d marks the D form. Peptide text beside a SMILES is read from it. * marks the point of attachment. Ala(1H-tetrazol-5-yl) = N[C@@H](Cc1nnn[nH]1)C(=O)O; Ms = CS(=O)(=O)*

B1: Peptide 9 (peptide)
peptide: HSXGIFTXSYSRYRKQLAVKKYLAAVL
modifications: N-terminal acetyl (Ac-); Tz (aspartic acid with carboxyl group replaced by tetrazole) at positions 3 and 8; C-terminal amide (NH2)
B2: Peptide 8 (peptide)
peptide: HSXGIFTXSYSRYRKQXAVKKYLAAVL
modifications: N-terminal acetyl (Ac-); Tz (aspartic acid with carboxyl group replaced by tetrazole) at positions 3 and 8; norleucine at position 17; C-terminal amide (NH2)
B3: Peptide 6 (peptide)
peptide: HSXGIFTXSYSRYRKQXAVKKYLAAVL
modifications: Tz (aspartic acid with carboxyl group replaced by tetrazole) at positions 3 and 8; norleucine at position 17; C-terminal amide (NH2)
B4: Peptide 7 (peptide)
peptide: HSXGIFTXSYSRYRKQLAVKKYLAAVL
modifications: Tz (aspartic acid with carboxyl group replaced by tetrazole) at positions 3 and 8; C-terminal amide (NH2)

Columns and labels:
[1] = Peptide stability test, Tris buffer (pH 7.0), 60° C. storage, HPLC remaining rate; type: physicochemical; conditions: 100 μM in Tris buffer pH 7.0
Method in brief: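 Peptides at 100 μM in Tris buffer (pH 7.0) stored 1 or 2 weeks at 60° C.; unstored sample kept at −30° C. as initial reference. Remaining peptide quantified by reversed-phase HPLC at 220 nm (formic acid/acetonitrile gradient, 40° C. column), as water-corrected remaining rate.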

[2] = system: rat trigeminal nerve cells; test: Axon elongation effect on cultured rat trigeminal nerve cells; type: cell-based; conditions: 1 μM peptide, 24 hours; N=8; Dunnett's test vs control P<0.001; FIG. 5
Description: Rats (Sic: Sprague-Dawley, 17-day-old, including female and male) purchased from Japan SLC, Inc. were euthanized by carbon dioxide gas inhalation and the trigeminal ganglion was harvested. The harvested trigeminal ganglion was washed with Hanks' balanced salt solution (HBSS) and then treated with collagenase A (Roche) for 30 minutes at 37° C. A neuron dispersion (Wako) was then used according to protocol for dispersion of the cells. Debris removal solution (Miltenyi biotec) and Myelin removal beads II (Miltenyi biotec) were used according to protocol to remove the debris and myelin. After suspending the isolated trigeminal nerve cells in culture solution, they were seeded onto a polylysine/laminin-coated 8-well chamber slide (Corning) at 2.5×10^3 cells/well. The culture solution used was Neurobasal-A containing B27 supplement (final concentration: 2%) and GlutaMAX (final concentration: 2 mM) and penicillin/streptomycin (final concentration: 1%). The culturing conditions were a carbon dioxide concentration of 5%, an air concentration of 95%, a humidity of 100% and a temperature of 37° C. […] The control was replaced with peptide-free culture solution. Culture medium replacement was followed by further culturing for 24 hours.
The culture medium was replaced with peptide-containing culture solution, and the rat trigeminal nerve cells cultured for 24 hours were immersed in a 2% paraformaldehyde solution at room temperature for 20 minutes for fixing. The cells were washed with PBS, and then 2% bovine serum albumin containing 0.1% TritonX-100 was added and reaction was conducted for 30 minutes. After washing with PBS, it was reacted with phospho-neurofilament H antibody (Merck, MAB1592-C) specifically recognizing neurofilaments forming the neuron bodies and neurites, for 1 hour at room temperature. After reaction for 1 hour, a fluorescent-labeled secondary antibody (Invitrogen Corp., #A-11031) was reacted at room temperature for 1 hour for fluorescent staining of the sample, and the stained cells were observed under a fluorescent microscope. The stained cell image was captured as an image from the fluorescent microscope and loaded into a computer.
In order to evaluate the extent of neurite formation by the rat trigeminal nerve cells, cells with neurites having lengths of at least twice the cell body diameter in the stained cell image in the computer were counted as neurite-forming cells, and the percentage (%) of this number of cells over the total cell count was calculated (Otori Y. Wei J Y, Barnstable C J. Invest. Ophthalmol Vis Sci (1998) 39, 972-981). The significant difference with respect to the control was determined by Dunnett's test (P<0.001).

[3] = target: T1, PAC1R (Homo sapiens, UniProt P41586); test: cAMP assay in PAC1R high-expressing CHO-K1 cell line; type: cell-based; conditions: Table 12; cAMP inducing effect, CHO-K1 PAC1R high-expressing cells
T1 construct: host or cells: CHO-K1
T1 sequence (P41586 21-468): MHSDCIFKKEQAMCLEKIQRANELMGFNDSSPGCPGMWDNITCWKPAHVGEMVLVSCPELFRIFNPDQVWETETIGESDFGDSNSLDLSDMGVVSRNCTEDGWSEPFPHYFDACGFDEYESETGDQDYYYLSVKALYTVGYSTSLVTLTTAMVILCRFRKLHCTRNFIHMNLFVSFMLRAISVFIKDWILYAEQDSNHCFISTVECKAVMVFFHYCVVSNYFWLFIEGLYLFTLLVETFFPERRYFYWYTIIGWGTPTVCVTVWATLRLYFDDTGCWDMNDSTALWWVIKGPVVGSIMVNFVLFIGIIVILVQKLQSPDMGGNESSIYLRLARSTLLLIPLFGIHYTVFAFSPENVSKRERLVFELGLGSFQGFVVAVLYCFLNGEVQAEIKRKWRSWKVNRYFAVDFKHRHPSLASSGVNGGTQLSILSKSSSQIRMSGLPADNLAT
Description: The cells were cultured for 18 to 24 hours at 37° C. in a 5% C02 incubator, adhering the cells to the plate. […] A 5-fold dilution series was then prepared with the same Cell assay buffer and used in an assay. The cAMP assay was carried out using a Hit Hunter cAMP Assay for Biologics kit (product of DiscoveRx, Cat. No. 90-0075LM25), according to the included kit instructions. […] Next, the culture medium was removed from the CHO-K1 cell culture plate, washing was performed with PBS, and the peptide-cAMP antibody liquid mixtures were added to the cells and incubated for 30 minutes under a 5% CO2 atmosphere at 37° C. A working detection solution was then added and the culture plate was shielded from light with aluminum foil and incubated at 25° C. for 1 hour. After incubation, Solution A was added and the culture plate was shielded from light with aluminum foil and then incubated at 25° C. for 3 hours. […] The obtained value for the Relative Luminescence Unit (RLU) was analyzed with GraphPad Prism Ver 6.05 (product of Graph Pad) and the EC50 value was calculated for each peptide. […] FIG. 2 and Table 11. […] A 5-fold dilution series was then prepared with the same Cell assay buffer and used in an assay. […] A 5-fold dilution series was then prepared with the same Cell assay buffer and used in an assay.

[4] = target: T2, VPAC1 receptor (UniProt P32241 31-457, limits assumed); test: cell-based or functional assay
T2 sequence (looked up): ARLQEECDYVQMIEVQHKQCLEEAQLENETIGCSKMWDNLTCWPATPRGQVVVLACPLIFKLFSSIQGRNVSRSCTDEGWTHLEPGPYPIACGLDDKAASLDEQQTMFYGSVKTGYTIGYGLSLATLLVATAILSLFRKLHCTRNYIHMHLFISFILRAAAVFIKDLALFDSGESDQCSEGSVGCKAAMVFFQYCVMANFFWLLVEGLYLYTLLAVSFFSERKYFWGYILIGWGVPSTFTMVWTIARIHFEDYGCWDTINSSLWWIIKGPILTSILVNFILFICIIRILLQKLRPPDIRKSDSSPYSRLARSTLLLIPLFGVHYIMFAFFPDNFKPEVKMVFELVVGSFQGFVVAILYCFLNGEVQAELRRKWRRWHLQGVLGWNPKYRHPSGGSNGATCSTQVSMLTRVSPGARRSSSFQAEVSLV

[5] = target: T3, PAC1 receptor (UniProt P41586 21-468, limits assumed); test: cell-based or functional assay
T3 sequence (looked up): T1 sequence (P41586 21-468)

| Molecule | axon elongation (percentage of neurite-forming cells) [2] | EC50 (VPAC1R), cAMP inducing effect [4] | EC50 (PAC1R), cAMP inducing effect [5] | also measured |
| --- | --- | --- | --- | --- |
| CC[C@H](C)[C@H](NC(=O)CNC(=O)[C@H](Cc1nnn[nH]1)NC(=O)[C@H](CO)NC(=O)[C@H](Cc1c[nH]cn1)NS(C)(=O)=O)C(=O)N[C@@H](Cc1ccccc1)C(=O)N[C@H](C(=O)N[C@@H](Cc1nnn[nH]1)C(=O)N[C@@H](CO)C(=O)N[C@@H](Cc1ccc(O)cc1)C(=O)N[C@@H](CO)C(=O)N[C@@H](CCCNC(=N)N)C(=O)N[C@@H](Cc1ccc(O)cc1)C(=O)N[C@@H](CCCNC(=N)N)C(=O)N[C@@H](CCCCN)C(=O)N[C@@H](CCC(N)=O)C(=O)N[C@@H](CC(C)C)C(=O)N[C@@H](C)C(=O)N[C@H](C(=O)N[C@@H](CCCCN)C(=O)N[C@@H](CCCCN)C(=O)N[C@@H](Cc1ccc(O)cc1)C(=O)N[C@@H](CC(C)C)C(=O)N[C@@H](C)C(=O)N[C@@H](C)C(=O)N[C@H](C(=O)N[C@@H](CC(C)C)C(N)=O)C(C)C)C(C)C)[C@@H](C)O [Peptide 12] (Ms-HS[Ala(1H-tetrazol-5-yl)]GIFT[Ala(1H-tetrazol-5-yl)]SYSRYRKQLAVKKYLAAVL-NH2) | exhibited axon elongation-promoting effects |  |  | remaining rate after correction for water, 60° C., 1 week preservation ([1]; Table 7): 97.0%; remaining rate after correction for water, 60° C., 2 weeks preservation ([1]; Table 7): 93.6% |
| CC[C@H](C)[C@H](NC(=O)CNC(=O)[C@H](Cc1nnn[nH]1)NC(=O)[C@H](CO)NC(=O)[C@H](Cc1c[nH]cn1)NC(C)=O)C(=O)N[C@@H](Cc1ccccc1)C(=O)N[C@H](C(=O)N[C@@H](Cc1nnn[nH]1)C(=O)N[C@@H](CO)C(=O)N[C@@H](Cc1ccc(O)cc1)C(=O)N[C@@H](CO)C(=O)N[C@@H](CCCNC(=N)N)C(=O)N[C@@H](Cc1ccc(O)cc1)C(=O)N[C@@H](CCCNC(=N)N)C(=O)N[C@@H](CCCCN)C(=O)N[C@@H](CCC(N)=O)C(=O)N[C@@H](C)C(=O)N[C@@H](C)C(=O)N[C@H](C(=O)N[C@@H](CCCCN)C(=O)N[C@@H](CCCCN)C(=O)N[C@@H](Cc1ccc(O)cc1)C(=O)N[C@@H](CC(C)C)C(=O)N[C@@H](C)C(=O)N[C@@H](C)C(=O)N[C@H](C(=O)N[C@@H](CC(C)C)C(N)=O)C(C)C)C(C)C)[C@@H](C)O [Peptide 18] (Ac-HS[Ala(1H-tetrazol-5-yl)]GIFT[Ala(1H-tetrazol-5-yl)]SYSRYRKQAAVKKYLAAVL-NH2) | exhibited axon elongation-promoting effects |  |  | remaining rate after correction for water, 60° C., 1 week preservation ([1]; Table 7): 96.7%; remaining rate after correction for water, 60° C., 2 weeks preservation ([1]; Table 7): 90.6%; EC50 [3]: 0.061 nM |
| CC[C@H](C)[C@H](NC(=O)[C@H](C)NC(=O)[C@H](Cc1nnn[nH]1)NC(=O)[C@H](CO)NC(=O)[C@H](Cc1c[nH]cn1)NS(C)(=O)=O)C(=O)N[C@@H](Cc1ccccc1)C(=O)N[C@H](C(=O)N[C@@H](Cc1nnn[nH]1)C(=O)N[C@@H](CO)C(=O)N[C@@H](Cc1ccc(O)cc1)C(=O)N[C@@H](CO)C(=O)N[C@@H](CCCNC(=N)N)C(=O)N[C@@H](Cc1ccc(O)cc1)C(=O)N[C@@H](CCCNC(=N)N)C(=O)N[C@@H](CCCCN)C(=O)N[C@@H](CCC(N)=O)C(=O)N[C@@H](C)C(=O)N[C@@H](C)C(=O)N[C@H](C(=O)N[C@@H](CCCCN)C(=O)N[C@@H](CCCCN)C(=O)N[C@@H](Cc1ccc(O)cc1)C(=O)N[C@@H](CC(C)C)C(=O)N[C@@H](C)C(=O)N[C@@H](C)C(=O)N[C@H](C(=O)N[C@@H](CC(C)C)C(N)=O)C(C)C)C(C)C)[C@@H](C)O [Peptide 31] (Ms-HS[Ala(1H-tetrazol-5-yl)]AIFT[Ala(1H-tetrazol-5-yl)]SYSRYRKQAAVKKYLAAVL-NH2) | exhibited axon elongation-promoting effects |  |  | remaining rate after correction for water, 60° C., 2 weeks preservation ([1]; Table 7-2): 90.1% |
| B1 |  | 0.043 nM | 0.063 nM |  |
| B2 |  | 0.046 nM | 0.072 nM |  |
| B3 |  | 0.093 nM | 0.079 nM |  |
| B4 |  | 0.114 nM | 0.112 nM |  |
